Source: patent publication US8877741B2, “Pyrrolidine derivatives, pharmaceutical compositions and uses thereof” (Boehringer Ingelheim International GmbH, priority 2013, dated 2014)

Target: human ACC2 (Homo sapiens (Human), UniProt O00763)
Assay: ACC2 assay, spectrophotometric 384 well assay (NADH-linked kinetic method)
Assay type: biochemical
Settings: human ACC2 construct lacking the 128 N-terminal amino acids; coupled lactate dehydrogenase/pyruvate kinase reaction, 340 nm, 25° C.
Summary of the method: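 N-terminally truncated human ACC2 (lacking 128 residues), expressed in insect cells, was coupled to pyruvate kinase/lactate dehydrogenase, with NADH and acetyl-CoA at 2000 μM and ATP at 500 μM final. The OD340 decrease was followed over 15 min at 25 °C. Slopes were normalised to vehicle and no-acetyl-CoA controls, and IC50 came from four-parameter regression.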

Sequence of human ACC2 (O00763 129-2458): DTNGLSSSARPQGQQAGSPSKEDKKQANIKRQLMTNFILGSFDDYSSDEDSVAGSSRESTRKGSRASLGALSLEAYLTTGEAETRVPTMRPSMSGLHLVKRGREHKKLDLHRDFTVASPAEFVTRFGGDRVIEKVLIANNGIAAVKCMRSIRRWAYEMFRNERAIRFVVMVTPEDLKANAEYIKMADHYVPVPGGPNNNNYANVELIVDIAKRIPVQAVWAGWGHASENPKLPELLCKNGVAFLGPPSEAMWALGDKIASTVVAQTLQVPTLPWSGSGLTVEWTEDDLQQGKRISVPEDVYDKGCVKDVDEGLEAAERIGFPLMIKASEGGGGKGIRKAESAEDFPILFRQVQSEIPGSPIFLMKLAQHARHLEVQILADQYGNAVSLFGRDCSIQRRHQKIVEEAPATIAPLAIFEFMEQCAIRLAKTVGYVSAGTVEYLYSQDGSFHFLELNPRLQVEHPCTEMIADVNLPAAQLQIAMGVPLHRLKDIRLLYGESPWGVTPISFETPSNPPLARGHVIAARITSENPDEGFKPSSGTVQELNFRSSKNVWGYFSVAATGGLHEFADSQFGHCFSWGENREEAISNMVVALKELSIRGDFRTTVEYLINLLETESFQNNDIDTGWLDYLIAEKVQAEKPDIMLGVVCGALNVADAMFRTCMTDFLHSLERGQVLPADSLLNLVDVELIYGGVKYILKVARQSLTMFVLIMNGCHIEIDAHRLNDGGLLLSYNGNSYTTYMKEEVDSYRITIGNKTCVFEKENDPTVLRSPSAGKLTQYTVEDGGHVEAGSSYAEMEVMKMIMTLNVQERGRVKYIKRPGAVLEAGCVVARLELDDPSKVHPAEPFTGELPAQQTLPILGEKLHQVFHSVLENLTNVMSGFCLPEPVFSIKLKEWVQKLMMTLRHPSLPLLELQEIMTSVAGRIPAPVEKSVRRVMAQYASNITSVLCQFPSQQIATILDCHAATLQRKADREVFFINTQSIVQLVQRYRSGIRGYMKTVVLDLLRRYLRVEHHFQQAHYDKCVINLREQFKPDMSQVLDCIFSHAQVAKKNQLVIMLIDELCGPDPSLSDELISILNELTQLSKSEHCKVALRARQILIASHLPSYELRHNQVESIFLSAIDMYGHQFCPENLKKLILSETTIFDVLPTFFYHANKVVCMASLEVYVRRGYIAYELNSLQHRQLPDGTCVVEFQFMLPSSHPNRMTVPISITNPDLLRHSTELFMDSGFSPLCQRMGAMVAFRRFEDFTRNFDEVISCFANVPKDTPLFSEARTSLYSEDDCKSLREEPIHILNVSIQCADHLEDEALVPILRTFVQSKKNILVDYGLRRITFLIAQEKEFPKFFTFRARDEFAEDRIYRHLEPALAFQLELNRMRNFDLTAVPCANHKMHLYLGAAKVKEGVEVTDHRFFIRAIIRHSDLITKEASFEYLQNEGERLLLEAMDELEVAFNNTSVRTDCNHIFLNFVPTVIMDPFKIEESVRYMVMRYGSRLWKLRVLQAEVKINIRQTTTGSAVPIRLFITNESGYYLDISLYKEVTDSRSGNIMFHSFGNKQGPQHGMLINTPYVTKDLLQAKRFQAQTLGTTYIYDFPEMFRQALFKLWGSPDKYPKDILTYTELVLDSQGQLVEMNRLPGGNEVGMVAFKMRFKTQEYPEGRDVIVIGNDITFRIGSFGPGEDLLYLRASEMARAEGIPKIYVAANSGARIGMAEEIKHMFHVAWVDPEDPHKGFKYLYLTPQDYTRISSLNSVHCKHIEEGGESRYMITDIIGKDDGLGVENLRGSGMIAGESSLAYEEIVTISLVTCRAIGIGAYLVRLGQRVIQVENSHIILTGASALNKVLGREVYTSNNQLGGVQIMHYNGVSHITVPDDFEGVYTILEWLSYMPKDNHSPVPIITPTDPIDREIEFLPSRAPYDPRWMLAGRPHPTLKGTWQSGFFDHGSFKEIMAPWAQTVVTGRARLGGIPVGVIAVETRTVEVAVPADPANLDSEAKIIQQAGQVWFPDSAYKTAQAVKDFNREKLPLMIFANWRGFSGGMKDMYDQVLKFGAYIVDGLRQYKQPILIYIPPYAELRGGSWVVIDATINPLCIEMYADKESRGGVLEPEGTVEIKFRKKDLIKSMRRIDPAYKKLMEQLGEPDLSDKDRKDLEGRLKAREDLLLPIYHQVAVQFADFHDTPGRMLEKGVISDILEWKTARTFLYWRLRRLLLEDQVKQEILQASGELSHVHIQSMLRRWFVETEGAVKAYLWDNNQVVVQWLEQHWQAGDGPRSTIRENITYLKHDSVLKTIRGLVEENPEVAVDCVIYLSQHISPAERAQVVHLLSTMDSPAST

Row | Structure (SMILES) | IC50
1 | C[C@H](NC(=O)c1cnco1)c1ccc(OC2CCN(c3ccnc(N4CCC(F)(F)C4)c3F)C2)cc1 (stereo partly drawn) [Example 2.126] | 45 nM
2 | COCCN(C)c1nccc(N2CC[C@@H](Oc3ccc([C@H](C)NC(C)=O)cc3)C2)c1F [Example 1.106] | 69 nM
3 | C[C@H](NC(=O)[C@@H](C)O)c1ccc(OC2CCN(c3ccnc(OCC4CC4)c3)C2)cc1 (stereo partly drawn) [Example 2.68] | 265 nM
4 | CNC(=O)c1cccc(C(=O)N[C@@H](C)c2ccc(OC3CCN(c4ccc(OCC5CC5)cc4)C3)cc2)n1 (stereo partly drawn) [Example 2.2] | 705 nM
5 | CCN(C)C(=O)N[C@@H](C)c1ccc(OC2CCN(c3ccc(OCC4CC4(F)F)cn3)C2)cc1 (stereo partly drawn) [Example 3.8] | 90 nM
6 | CCCOc1ccc(N2CCC(Oc3ccc([C@H](C)NC(C)=O)cc3)C2)nc1 (stereo partly drawn) [Example 1.2] | 146 nM
7 | CC(=O)Nc1cncc(C(=O)N[C@@H](C)c2ccc(OC3CCN(c4ccnc(OC(C)C)c4)C3)cc2)c1 (stereo partly drawn) [Example 2.22] | 998 nM
8 | CC(C)Oc1cc(N2CCC(Oc3ccc([C@H](C)NC(=O)c4ccoc4)cc3)C2)ccn1 (stereo partly drawn) [Example 2.20] | 110 nM
9 | CC(=O)N[C@@H](C)c1ccc(O[C@@H]2CCN(c3ccnc(N4CCCCC4)c3F)C2)cc1 [Example 1.102] | 61 nM
10 | CC(=O)N[C@@H](C)c1ccc(O[C@@H]2CCN(c3ccnc(N4CCC4)c3Cl)C2)cc1 [Example 1.131] | 76 nM
11 | C[C@H](NC(=O)N1CCC1)c1ccc(OC2CCN(c3ccc(OCC4CC4(F)F)cn3)C2)cc1 (stereo partly drawn) [Example 3.9] | 200 nM
12 | Cc1cc(C(=O)N[C@@H](C)c2ccc(OC3CCN(c4cccc(C(F)(F)F)n4)C3)cc2)no1 (stereo partly drawn) [Example 2.61] | 35 nM
13 | C[C@H](NC(=O)c1cnco1)c1ccc(OC2CCN(c3ccnc(OCC4CC4)c3)C2)cc1 (stereo partly drawn) [Example 2.67] | 46 nM
14 | Cc1[nH]ncc1C(=O)N[C@@H](C)c1ccc(OC2CCN(c3ccnc(OCC4CC4)c3)C2)cc1 (stereo partly drawn) [Example 2.84] | 169 nM
15 | COc1c(N2CC[C@@H](Oc3ccc([C@H](C)NC(C)=O)cc3)C2)ccnc1N1CCC(F)(F)C1 [Example 1.146] | 109 nM
16 | CC(=O)N[C@@H](C)c1ccc(OC2CCN(c3ccc(OC4CCCC4)cn3)C2)cc1 (stereo partly drawn) [Example 1.27] | 70 nM
17 | CCC(=O)Nc1nc(C)c(C(=O)N[C@@H](C)c2ccc(O[C@@H]3CCN(c4ccnc(NCC5CC5)c4Cl)C3)cc2)s1 [Example 1.140] | 65 nM

Row | Structure (SMILES) | IC50
18 | C[C@H](NC(=O)c1ccnc(F)c1)c1ccc(OC2CCN(c3cccc(C(F)(F)F)n3)C2)cc1 (stereo partly drawn) [Example 2.44] | 991 nM
19 | CC(=O)N[C@@H](C)c1ccc(OC2CCN(c3ccc(F)c(C)n3)C2)cc1 (stereo partly drawn) [Example 1.65] | 107 nM
20 | CC(C)Oc1cc(N2CCC(Oc3ccc([C@H](C)NC(=O)C4(C#N)CC4)cc3)C2)ccn1 (stereo partly drawn) [Example 2.27] | 571 nM
21 | CCCOc1cnc(N2CCC(Oc3ccc([C@H](C)NC(C)=O)cc3)C2)c(C)c1 (stereo partly drawn) [Example 1.39] | 379 nM
22 | CC(=O)N[C@@H](C)c1ccc(OC2CCN(c3ncc(OC4CCC4)cc3F)C2)cc1 (stereo partly drawn) [Example 1.20] | 65 nM
23 | CC(C)Oc1cc(N2CCC(Oc3ccc([C@H](C)NC(=O)c4ccco4)cc3)C2)ccn1 (stereo partly drawn) [Example 2.18] | 862 nM
24 | CCC(=O)N[C@@H](C)c1ccc(OC2CCN(c3ccnc(OCC(F)F)c3)C2)cc1 (stereo partly drawn) [Example 2.106] | 88 nM
25 | C[C@H](NC(=O)[C@@H](C)O)c1ccc(OC2CCN(c3ccnc(OCC(F)F)c3)C2)cc1 (stereo partly drawn) [Example 2.105] | 784 nM
26 | CC(=O)N[C@@H](C)c1ccc(OC2CCN(c3ncc(OCC4CC4(F)F)cc3F)C2)cc1 (stereo partly drawn) [Example 1.23] | 115 nM
27 | C[C@H](NC(=O)c1cn[nH]c1)c1ccc(OC2CCN(c3ccc(OC[C@H]4CC4(F)F)cn3)C2)cc1 (stereo partly drawn) [Example 2.93] | 40 nM
28 | CC(=O)N[C@@H](C)c1ccc(OC2CCN(c3ccc(OC4CC4)cn3)C2)cc1 (stereo partly drawn) [Example 1.66] | 384 nM
29 | CC(=O)N[C@@H](C)c1ccc(O[C@@H]2CCN(c3nccc(N(C)C)c3F)C2)cc1 [Example 1.98] | 967 nM
30 | C[C@H](NC(=O)c1cnco1)c1ccc(OC2CCN(c3ccc(OCC4CC4(F)F)cn3)C2)cc1 (stereo partly drawn) [Example 2.121] | 43 nM
31 | CC(=O)N[C@@H](C)c1ccc(OC2CCN(c3ccc(OCCCF)nc3)C2)cc1 (stereo partly drawn) [Example 1.88] | 423 nM
32 | CC(=O)N[C@@H](C)c1ccc(O[C@@H]2CCN(c3ccc(OC[C@H]4CC4(F)F)cn3)C2)cc1 [Example 1.118] | 39 nM
33 | Cc1oncc1C(=O)N[C@@H](C)c1ccc(OC2CCN(c3ccnc(OC(C)C)c3)C2)cc1 (stereo partly drawn) [Example 2.58] | 69 nM
34 | CC(C)Oc1cc(N2CCC(Oc3ccc([C@H](C)NC(=O)CC(F)(F)F)cc3)C2)ccn1 (stereo partly drawn) [Example 2.11] | 1000 nM

Second part, the compound after the results:

Row | IC50 | Structure (SMILES)
35 | 649 nM | C[C@H](NC(=O)C(C)(C)C)c1ccc(O[C@@H]2CCN(c3cccc(C(F)(F)F)n3)C2)cc1 [Example 5.1, N—((S)-1-(4-((R)-1-(6-(Trifluoromethyl)pyridin-2-yl)pyrrolidin-3-yloxy)phenyl)ethyl) pivalamide]
36 | 105 nM | CO[C@@H]1CN(c2cccc(C(F)(F)F)n2)C[C@@H]1Oc1ccc([C@H](C)NC(C)=O)cc1 [Example 8.9]
37 | 40 nM | CC(=O)N[C@@H](C)c1ccc(O[C@@H]2CCN(c3ccnc(OC4CCCC4)c3)C2)cc1 [Example 9.28]
38 | 177 nM | CC(=O)N[C@@H](C)c1ccc(O[C@@H]2CCN(c3ccnc(OCC(C)(C)O)c3Cl)C2)cc1 [Example 9.88]
39 | 70 nM | COC(=O)N[C@@H](C)c1ccc(OC2CCN(c3ccnc(OCC4CC4)c3)C2)cc1 (stereo partly drawn) [Example 4.4]
40 | 115 nM | CC(=O)N[C@@H](C)c1ccc(O[C@@H]2CCN(c3cccc(N4CCC(C)C4)n3)C2)cc1 (stereo partly drawn) [Example 10.10]
41 | 325 nM | COC1CCCN(c2cccc(N3CC[C@@H](Oc4ccc([C@H](C)NC(C)=O)cc4)C3)n2)C1 (stereo partly drawn) [Example 10.37]
42 | 770 nM | CCN(CCO)c1cccc(N2CC[C@@H](Oc3ccc([C@H](C)NC(C)=O)cc3)C2)n1 [Example 10.43]
43 | 477 nM | CC(=O)N[C@@H](C)c1ccc(O[C@@H]2CCN(c3ccnc(OCc4cccc(F)c4)c3)C2)cc1 [Example 9.21]
44 | 85 nM | C[C@H](NC(=O)c1cncs1)c1ccc(O[C@@H]2CCN(c3ccnc(OC4CCOC4)c3)C2)cc1 (stereo partly drawn) [Example 9.65]
45 | 45 nM | COc1c(N2CC[C@@H](Oc3ccc([C@H](C)NC(C)=O)cc3)C2)ccnc1OCC1CC1(F)F (stereo partly drawn) [Example 14.2]
46 | 855 nM | CC(=O)N[C@@H](C)c1ccc(O[C@@H]2CCN(c3nc(N(C)C)ccc3F)C2)cc1 [Example 10.18]
47 | 184 nM | C[C@H](NC(=O)C1CC1)c1ccc(O[C@@H]2CCN(c3ccnc(O[C@@H]4CCOC4)c3)C2)cc1 [Example 9.43]
48 | 245 nM | CC(=O)N[C@@H](C)c1ccc(O[C@@H]2CCN(c3cccc(N4CCC5(CC5)C4)n3)C2)cc1 [Example 10.32]
49 | 58 nM | COc1c(N2CC[C@@H](Oc3ccc([C@H](C)NC(C)=O)cc3)C2)ccnc1OCC(F)F [Example 14.1, N—((S)-1-(4-((R)-1-(2-(2,2-Difluoroethoxy)-3-methoxypyridin-4-yl)pyrrolidin-3-yloxy)phenyl)ethyl)acetamide]
50 | 853 nM | CC(=O)N[C@@H](C)c1ccc(O[C@@H]2CCN(c3cccc(N(C)CC(C)O)n3)C2)cc1 (stereo partly drawn) [Example 10.35]
51 | 480 nM | COCC(C)Oc1cc(N2CC[C@@H](Oc3ccc([C@H](C)NC(C)=O)cc3)C2)ccn1 (stereo partly drawn) [Example 9.3]
